Drawing on PubChem BioAssay AID624444 (Broad Institute, 2012), this text covers activity change, negative = inhibition and AC35 for twelve compounds.

For this assay, the system named is 26S proteasome chymotrypsin-like activity (human). The experiment in a line: proteasome chymotrypsin-like activity inhibition in cells, dose response, mechanism study for HSF1 activator project, U2OS cells, luminescence, dry powder (AID 624444). The note with it: Proteasome-Glo chymotrypsin luminescence; for activity change, negative = inhibition: at 38 µM (top of the series).

The source made the active and inactive calls.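 How the source made its calls: active means fitted curve reaches 35% signal loss at a dose no higher than twice the top tested dose; inconclusive means flat fit with 30 to 70% loss, or poor fit; inactive means the rest.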

In the case of `O=C(Nc1nc(SCc2ccccc2)ns1)C1CC=CCC1` (configuration not stated), the activity change, negative = inhibition was -29.4% (inactive). Consider `O=C(Nc1ccccc1)Nc1nc(SCc2ccccc2)ns1`, for which the activity change, negative = inhibition is -37.2% (inactive).

Regarding `Nc1nc(S(=O)(=O)Cc2ccccc2)ns1`, the activity change, negative = inhibition is -9% (inactive). Turning to `Cc1cccc(CSc2nsc(N)n2)c1`, the activity change, negative = inhibition is 3.69% (inactive). On the same count and under the same terms, the value for `Nc1nc(SCc2ccc(F)cc2)ns1` was -32% (inactive). `O=C(Nc1nc(SCc2ccccc2)ns1)C1CCC1`: the AC35 was 35.4 µM. As to `Cc1ccccc1CSc1n[nH]c(N)n1`, the activity change, negative = inhibition was 19.2% (inactive). The same measure, in the same setting: the value for `Nc1nc(SCc2ccccc2Cl)ns1` was -9.05% (inactive). The same measure, in the same setting: the value for `Cc1ccccc1CSc1nsc(N)n1` was -3.56% (inactive).

As to `Cc1ccccc1CSc1nnc(N)s1`, the AC35 was 26 µM. For `Nc1nc(SCc2ccc(Cl)cc2Cl)ns1`, the activity change, negative = inhibition was 41.7% (inactive). Turning to `Nc1nc(SCc2ccccc2)ns1`, the activity change, negative = inhibition was -11% (inactive).
